{"source": "patent US4962107A", "about": "“Agent for cerebral protection” (Kyowa Hakko Kogyo Kabushiki Kaisha, priority 1985, dated 1990)", "key": {"[1]": {"tested_on": "mice subjected to anaemic hypoxia", "experiment": "Effects on survival time of mice subjected to anaemic hypoxia (NaNO2)", "format": "in vivo, mouse (ddY strain; male)", "details": "30 mg/kg oral, 2 h before; NaNO2 225 mg/kg s.c.; mean ± S.E.; *P < 0.05, **P < 0.001 vs control", "procedure": "(Hypoxia induced by NaNO2 administration to convert haemoglobin to methemoglobin)\nMice (ddY strain; male; body weight 20-22 g) were used as test animals. Each group consisted of 10 or more mice. A test compound (30 mg/kg) was orally administered to each mouse. Two hours after the administration, NaNO2 (225 mg/kg) was subcutaneously administered to each mouse. The time from the NaNO2 administration to death was measured. Survival time of the compound-administered group and that of the control group were compared by t-test."}, "[2]": {"experiment": "Test for acute toxicity (LD50, oral, 7 days)", "details": "mouse, in vivo, mice, deaths within 7 days, 5 mice per group", "procedure": "Mice (ddY strain; male; body weight 21-23 g) were used as test animals. Each group consisted of 5 mice. The test compound was orally administered to each mouse. During the test period of 7 days after the administration, the number of deaths in each group was counted to calculate the LD50. All animals were bred in a breeding room, maintained at a temperature of 23°±2° C. and a humidity of 55-60%. These animals were given a solid feed \"F-2\" (commercial product of Funabashi Nojo) and city water ad libitum."}, "[3]": {"tested_on": "mice subjected to normobaric hypoxia", "experiment": "Effects on survival time of mice subjected to normobaric hypoxia", "format": "in vivo, mouse (ddY strain; male)", "details": "50 mg/kg oral, 2 h before; 96% nitrogen/4% oxygen; protected = alive 10 or more minutes", "procedure": "Mice (ddY strain; male; body weight 20-22 g) were used as test animals. Each group consisted of 10 or more mice. A test compound (50 mg/kg) was orally administered to each mouse.\nThen each animal was put into a glass cylinder (capacity: 700 ml) and a mixture of nitrogen (96%) and oxygen (4%) was passed through the cylinder at a velocity of 5 1 /min and expelled through a hole in the side wall. The time from the start of the gas mixture supply to the cessation of respiratory motion was measured, and animals which remained alive for 10 or more minutes were evaluated as \"protected\". Among 50 untreated animals, no animal remained alive. In use, the test compound was suspended in an aqueous solution of carboxymethylcellulose sodium (0.3%)."}, "[4]": {"tested_on": "mice subjected to hypobaric hypoxia", "experiment": "Effects on survival time of mice subjected to hypobaric hypoxia", "format": "in vivo, mouse (ddY strain; male)", "details": "30 mg/kg oral, 2 h before; 150 mmHg; mean ± S.E.; *P < 0.05, **P < 0.001 vs control", "procedure": "Mice (ddY strain; male; body weight 20-22 g) were used as test animals. Each group consisted of 10 or more mice. A test compound (30 mg/kg) was orally administered to each mouse. Two hours after the administration, each animal was put into a desiccator (capacity: 9 l), and the inside pressure of the desiccator was reduced to 150 mmHg over a period of 52-55 seconds. The time from the start of the pressure reduction to the cessation of respiratory motion was measured. Survival time of the compound-administered group and that of the control group were compared by t-test."}, "[5]": {"tested_on": "decapitated heads of mice", "experiment": "Effect on time of gasping persistence by decapitated heads of mice", "format": "in vivo, mouse (ddY strain; male)", "details": "30 mg/kg oral, 2 h before decapitation; mean ± S.E.; **P < 0.001 vs control", "procedure": "Mice (ddY strain; male; body weight 20-22 g) were used as test animals. Each group consisted of 10 or more mice. A test compound (30 mg/kg) was orally administered to each mouse. Two hours after the administration, each animal was decapitated, and the time from the decapitation to the cessation of gasping was measured. Time of gasping persistence of the treated group and that of the control group were compared by t-test."}, "[6]": {"tested_on": "cerebral ischaemia or cerebral hypoxia", "details": "cited from literature; cited from earlier work"}, "[7]": {"details": "cited from literature / background; cited from earlier work"}, "[8]": {"experiment": "Acute toxicity (general statements, comparison with nizofenone)", "details": "in vivo, po; per os; species and method not stated at this place"}}, "data": [{"compound": "CC1CCCCN1C(=O)C=Cc1ccc(C(F)(F)F)cc1", "note": "(stereo not drawn) [Compound 1, 2-methyl-1-(4-trifluoromethylcinnamoyl) piperidine]", "values": [{"measurement": "Survival Time", "setting": "[1]", "result": "64.9 ± 5.5", "unit": "min"}, {"measurement": "LD50 at 168 h", "setting": "[2]", "result": "> 1010", "unit": "mg/kg"}, {"measurement": "A/B (number of animals surviving / number of animals tested)", "setting": "[3]", "result": "10/10"}, {"measurement": "Survival Time", "setting": "[4]", "result": "582.8 ± 12.1", "unit": "s"}, {"measurement": "Persistence Time (gasping)", "setting": "[5]", "result": "39.1 ± 1.4", "unit": "s"}]}, {"compound": "CC1COCCN1C(=O)C=Cc1ccc(C(F)(F)F)cc1", "note": "(stereo not drawn) [Compound 2, 3-methyl-4-(4-trifluoromethylcinnamoyl) morpholine]", "values": [{"measurement": "LD50 at 168 h", "setting": "[2]", "result": "675 to 1010", "unit": "mg/kg"}, {"measurement": "A/B (number of animals surviving / number of animals tested)", "setting": "[3]", "result": "8/10"}]}, {"compound": "CC1CCCCN1C(=O)C=Cc1ccc(Cl)cc1", "note": "(stereo not drawn) [Compound 3, 2-Methyl-1-(4-chlorocinnamoyl) piperidine]", "values": [{"measurement": "Survival Time", "setting": "[1]", "result": "47.7 ± 5.5", "unit": "min"}, {"measurement": "LD50 at 168 h", "setting": "[2]", "result": "> 1010", "unit": "mg/kg"}, {"measurement": "A/B (number of animals surviving / number of animals tested)", "setting": "[3]", "result": "9/10"}, {"measurement": "Survival Time", "setting": "[4]", "result": "172.4 ± 11.3", "unit": "s"}, {"measurement": "Persistence Time (gasping)", "setting": "[5]", "result": "30.2 ± 1.1", "unit": "s"}]}, {"compound": "CC1CCCCN1C(=O)C=Cc1ccc(F)cc1", "note": "(stereo not drawn) [Compound 4, 2-Methyl-1-(4-fluorocinnamoyl) piperidine]", "values": [{"measurement": "Survival Time", "setting": "[1]", "result": "58.4 ± 5.5", "unit": "min"}, {"measurement": "LD50 at 168 h", "setting": "[2]", "result": "> 1010", "unit": "mg/kg"}, {"measurement": "A/B (number of animals surviving / number of animals tested)", "setting": "[3]", "result": "7/20"}, {"measurement": "Survival Time", "setting": "[4]", "result": "126.3 ± 6.9", "unit": "s"}, {"measurement": "Persistence Time (gasping)", "setting": "[5]", "result": "23.5 ± 0.8", "unit": "s"}]}, {"compound": "CC1CCCC(C)N1C(=O)C=Cc1ccc(C(F)(F)F)cc1", "note": "(stereo not drawn) [Compound 5, 2,6-Dimethyl-1-(4-trifluoromethylcinnamoyl) piperidine]", "values": [{"measurement": "LD50 at 168 h", "setting": "[2]", "result": "> 1010", "unit": "mg/kg"}, {"measurement": "A/B (number of animals surviving / number of animals tested)", "setting": "[3]", "result": "15/20"}]}, {"compound": "O=C(C=Cc1ccc(F)cc1)N1CCOCC1", "note": "[Compound 6, 4-(4-Fluorocinnamoyl) morpholine]", "values": [{"measurement": "LD50 at 168 h", "setting": "[2]", "result": "> 1010", "unit": "mg/kg"}, {"measurement": "A/B (number of animals surviving / number of animals tested)", "setting": "[3]", "result": "2/10"}]}, {"compound": "O=C(C=Cc1ccc(C(F)(F)F)cc1)N1CCOCC1", "note": "[Compound 7, 4-(4-Trifluoromethylcinnamoyl) morpholine]", "values": [{"measurement": "LD50 at 168 h", "setting": "[2]", "result": "300 to 450", "unit": "mg/kg"}, {"measurement": "A/B (number of animals surviving / number of animals tested)", "setting": "[3]", "result": "4/10"}]}, {"compound": "CC1CCN(C(=O)C=Cc2ccc(C(F)(F)F)cc2)CC1", "note": "[Compound 8, 4-Methyl-1-(4-trifluoromethylcinnamoyl) piperidine]", "values": [{"measurement": "LD50 at 168 h", "setting": "[2]", "result": "> 1010", "unit": "mg/kg"}, {"measurement": "A/B (number of animals surviving / number of animals tested)", "setting": "[3]", "result": "5/20"}]}, {"compound": "O=C(C=Cc1ccc(C(F)(F)F)cc1)N1CCCCC1CO", "note": "(stereo not drawn) [Compound 9, 2-Hydroxymethyl-1-(4-trifluoromethylcinnamoyl) piperidine]", "values": [{"measurement": "A/B (number of animals surviving / number of animals tested)", "setting": "[3]", "result": "2/10"}]}, {"compound": "O=C(C=Cc1ccc(C(F)(F)F)cc1)N1CCC(O)CC1", "note": "[Compound 10, 4-Hydroxy-1-(4-trifluoromethylcinnamoyl) piperidine]", "values": [{"measurement": "A/B (number of animals surviving / number of animals tested)", "setting": "[3]", "result": "2/10"}]}, {"compound": "O=C(C=Cc1ccc(C(F)(F)F)cc1)N1CCSCC1", "note": "[Compound 11, 4-(4-Trifluoromethylcinnamoyl) thiomorpholine]", "values": [{"measurement": "A/B (number of animals surviving / number of animals tested)", "setting": "[3]", "result": "7/10"}]}, {"compound": "O=C(C=Cc1ccc(C(F)(F)F)cc1)N1CC[S+]([O-])CC1", "note": "[Compound 12, 4-(4-trifluoromethylcinnamoyl) thiomorpholine-1-oxide]", "values": [{"measurement": "A/B (number of animals surviving / number of animals tested)", "setting": "[3]", "result": "8/10"}]}, {"compound": "O=C(C=Cc1ccc(C(F)(F)F)cc1)N1CCS(=O)(=O)CC1", "note": "[Compound 13, 4-(4-trifluoromethylcinnamoyl) thiomorpholine-1,1-dioxide]", "values": [{"measurement": "A/B (number of animals surviving / number of animals tested)", "setting": "[3]", "result": "6/10"}]}, {"compound": "O=C(C=Cc1ccc(Cl)cc1)N1CCCCC1", "note": "[Compound 14, 1(4-chlorocinnamoyl) piperidine]", "values": [{"measurement": "LD50 at 168 h", "setting": "[2]", "result": "> 1010", "unit": "mg/kg"}, {"measurement": "A/B (number of animals surviving / number of animals tested)", "setting": "[3]", "result": "4/10"}]}, {"compound": "O=C(C=Cc1ccc(Cl)c(Cl)c1)N1CCOCC1", "note": "[Compound 15, 4(3,4-dichlorocinnamoyl) morpholine]", "values": [{"measurement": "LD50 at 168 h", "setting": "[2]", "result": "450 to 675", "unit": "mg/kg"}, {"measurement": "A/B (number of animals surviving / number of animals tested)", "setting": "[3]", "result": "5/10"}]}, {"compound": "O=C(C=Cc1ccc(Cl)cc1)N1CCOCC1", "note": "[Compound 16, 4(4-chlorocinnamoyl) morpholine]", "values": [{"measurement": "LD50 at 168 h", "setting": "[2]", "result": "675 to 1010", "unit": "mg/kg"}, {"measurement": "A/B (number of animals surviving / number of animals tested)", "setting": "[3]", "result": "5/10"}]}, {"compound": "CCC1(c2ccccc2)C(=O)NC(=O)N(C)C1=O", "note": "(stereo not drawn) [mephobarbital]", "values": [{"measurement": "cerebral protective effect (literature)", "setting": "[6]", "result": "have a cerebral protective activity"}]}, {"compound": "CCN(CC)Cc1nccn1-c1ccc([N+](=O)[O-])cc1C(=O)c1ccccc1Cl.O=C(O)/C=C/C(=O)O", "note": "[nizofenone, 1-[2-(2-chlorobenzoyl)-4-nitrophenyl]-2-(diethylaminomethyl)imidazole fumarate]", "values": [{"measurement": "anesthetic or respiration-suppressing action, side effects (literature)", "setting": "[7]", "result": "does not exhibit an anesthetic or respiration-suppressing action"}, {"measurement": "LD50", "setting": "[8]", "result": "450 to 675", "unit": "mg/kg"}, {"measurement": "cerebral protective effect (literature)", "setting": "[6]", "result": "has a cerebral protective effect against cerebral ischaemia or cerebral hypoxia, similar to that of barbiturates"}]}, {"compound": "CCCC(C)C1(CC)C(=O)NC(=O)NC1=O", "note": "(stereo not drawn) [pentobarbital]", "values": [{"measurement": "cerebral protective effect (literature)", "setting": "[6]", "result": "have a cerebral protective activity"}]}, {"compound": "CCCC(C)C1(CC)C(=O)NC(=S)NC1=O", "note": "(stereo not drawn) [thiopental]", "values": [{"measurement": "cerebral protective effect (literature)", "setting": "[6]", "result": "have a cerebral protective activity"}]}]}
